Data published in US8524978B2, “Composition for production of plant body having improved sugar content, and use thereof” (Japan Science and Technology Agency, priority 2007, dated 2013).

Legend:
Lycopersicum esculentum [1] = experiment: Cultivation of Lycopersicum esculentum with GSSG or GSH, sensory tests of fruit (Example 1); format: in vivo; conditions: 50 mL of 0.5 mM at root twice a week, 60 days
Text: In the present example, Lycopersicum esculentum was cultivated with use of GSSG or GSH. Details of cultivation are described below.
First, Lycopersicum esculentum seedlings (TAKII & CO. Ltd., product name: Osama tomato reika) were transplanted into a hydroponic culture pot ( 1/2000 a). In the hidroponic culture pot, 6 L of vermiculite (ASAHI INDUSTRIES Co., LTD.), 3 L of KUREHA horticultural soil (KUREHA CORPORATION), and 3 L of vermiculite were layered as a lower, middle, and upper layers, respectively.
During the cultivation of Lycopersicum esculentum, 50 mL of 0.5 mM GSSG or 0.5 mM GSH (adjusted with 0.1N NaOH to be at pH 7) was applied twice a week at a root per plant. The Lycopersicum esculentum plants were grown for 60 days without being subjected to bud removal. Last 10 days was used as a harvest period for harvesting fruit of the plants. For comparison, a Lycopersicum esculentum plant was grown under the same condition, except that GSSG and GSH were not applied. To the plants of any condition, 3 g of Kumiai phosphorate ammonium nitrate potassium S-604 (Chisso Asahi Fertilizer Co., Ltd.) was applied as an additional fertilizer once in 2 weeks.
Next, the fruit harvested was subjected to sensory tests of sugar content and the like. As a result, it was determined that fruit of the plant applied with GSSG increased in sugar content compared to that of the plant not applied with GSSG or GSH. Further, it was determined that the plant applied with GSSG increased in number of fruit. It was determined that fruit of the plant applied with GSH increased in sugar content and acidity.

Lycopersicum esculentum [2] = experiment: Change of sugar content over time after one application of GSH or GSSG (Example 6); format: in vivo; conditions: 50 mL of 0.5 mM once at root 90 days after sowing; fruit harvested day 0 to day 4
Protocol: In the present example, a sugar content of a plant was determined after a substance for regulating an oxidation-reduction state of a cell was applied to the plant. The substance for regulating an oxidation-reduction state of a cell was GSH or GSSG. As in the case of Example 1, Lycopersicum esculentum was used as the plant. Specifically, the following operations were carried out.
Ninety days after sowing of Lycopersicum esculentum seeds, Lycopersicum esculentum plants were subjected to a GSH or GSSG treatment. The Lycopersicum esculentum plants were cultivated by the same method as in Example 1 except for the GSH or GSSG treatment. The GSH or GSSG treatment was such that 50 mL of 0.5 mM GSSH or 0.5 mM GSH (adjusted with 0.1N NaOH to be at pH 7) was applied once at a root per plant. Then, fruit of the plants was harvested every day from the 0th day until the 4th day after application of GSH or GSSG, and subjected to sugar content determination. […] FIG. 3 is a graph showing a determination result of relation between sugar content and the number of days from an application day of GSH or GSSG. In FIG. 3, the vertical scale indicates sugar content (Brix, unit: %) and the horizontal scale indicates days from the application day. In FIG. 3, lines labeled with circles, triangles, and squares show results of the plants applied with GSH, GSSG, and no GSH and no GSSG, respectively. […]

Q: With oxidized glutathione [GSSG] as the substance, how does the number of fruit (Lycopersicum esculentum [1]) read?
A: The number of fruit was “increased”.

Q: What about the “sugar content of fruit (sensory test)” value (Lycopersicum esculentum [1]; compared to plant not applied with GSSG or GSH) of the same substance?
A: Its value is “increased”.

Q: What about the “sugar content of fruit (Brix) after application” value (Lycopersicum esculentum [2]) of the same substance?
A: Its value is “rapidly improve”.
